Measurements published in PubChem BioAssay (NCI).
Values joined by “and” are separate entries in the source; they are usually repeats but may differ in a detail not shown here. Identical values can stand only once.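 Cultured in 96-well plates, cells were exposed to test compound for 48 hours across five concentrations. Here, GI50 denotes the concentration required for 50% inhibition of growth. TGI denotes the concentration required for complete inhibition of growth.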

Key:
Assay in all cases: NCI-60 cell line screen, 48 h
SF-539 CNS = system: SF-539 CNS
CCRF-CEM leukemia = system: CCRF-CEM leukemia
K-562 leukemia = system: K-562 leukemia
MDA-MB-231 breast = system: MDA-MB-231 breast
HL-60(TB) leukemia = system: HL-60(TB) leukemia
SF-268 CNS = system: SF-268 CNS
DU-145 prostate = system: DU-145 prostate
MCF7 breast = system: MCF7 breast

Row | SMILES | TGI (SF-539 CNS) | TGI (CCRF-CEM leukemia) | TGI (K-562 leukemia) | TGI (MDA-MB-231 breast) | TGI (HL-60(TB) leukemia) | TGI (SF-268 CNS) | TGI (DU-145 prostate) | GI50 (SF-539 CNS) | GI50 (CCRF-CEM leukemia) | GI50 (K-562 leukemia) | GI50 (MDA-MB-231 breast) | GI50 (SF-268 CNS) | GI50 (DU-145 prostate) | GI50 (MCF7 breast) | TGI (MCF7 breast) | GI50 (HL-60(TB) leukemia)
1 | O=C(Nc1ccc(C(F)(F)F)cc1[N+](=O)[O-])c1cccnc1 | 25.5 µM | > 100 µM | > 100 µM | > 100 µM | > 100 µM | 30.6 µM | > 100 µM | – | – | – | – | – | – | – | – | –
2 | C=C1CC/C=C(\C)CC[C@H](C(=C)C)[C@@H](O)/C=C(/CO)CCC1O (some centres undefined) | > 100 µM | 48.6 µM | 69.7 µM | > 100 µM | – | > 100 µM | > 100 µM | > 100 µM | 24 µM | 24.5 µM | > 100 µM | 78.4 µM | 93.2 µM | 21.4 µM | > 100 µM | –
3 | CC1OC(OC2C(O[C@H]3CC[C@@]4(C)C(=CC[C@H]5[C@@H]6C[C@@H]7O[C@]8(CC[C@@H](C)CO8)[C@@H](C)[C@@H]7[C@@]6(C)CC[C@@H]54)C3)OC(CO)C(OC3OC(CO)C(O)C3O)C2O)C(O)C(O)C1O (some centres undefined) | 1.3 µM and 1.08 µM | 0.413 µM | 50 µM | 1.6 µM and 1.65 µM | 1.77 µM and 1.89 µM | 1.61 µM and 2.03 µM | 2.26 µM and 2.15 µM | 0.343 µM | – | – | 0.497 µM | – | – | 1.11 µM | 1.52 µM and 2.3 µM | 0.506 µM
4 | CCSc1ncc(Br)c(Sc2nc(N)nc3nc[nH]c23)n1 | 31.5 µM | – | > 100 µM | > 100 µM | 88.6 µM | > 100 µM | 60.9 µM | 3.52 µM | – | 3.11 µM | 2.8 µM | 3 µM | 2.95 µM | 3.04 µM | > 100 µM | 19.8 µM
5 | Cn1ccnc1C(=O)/C=C/c1ccc(C(=O)Nc2c(F)c(F)c(F)c(F)c2F)cc1 | 3.13 µM | 4.95 µM | 2.83 µM | 6.7 µM | 4.74 µM | 4.42 µM | 3.11 µM | 1.67 µM | 1.68 µM | 0.526 µM | 2.27 µM | 1.81 µM | 1.64 µM | – | – | 1.8 µM
6 | NC(N)=N/N=C/c1c(-c2ccc(Cl)c([N+](=O)[O-])c2)nc2sc3ccccc3n12 | – | – | > 50 µM | 1.47 µM | – | – | 14.8 µM | – | – | 0.209 µM | 0.697 µM | – | 2.29 µM | – | – | –
7 | N#CC(NC(=O)CCl)=C(Cl)Cl | 3.53 µM | 1.79 µM | 2.71 µM | 3.24 µM | – | 4.66 µM | 4.02 µM | 1.84 µM | 0.377 µM | 0.595 µM | 1.73 µM | 1.97 µM | 1.69 µM | 1.22 µM | 9.07 µM | –
8 | COc1cc2cc3c(c(O)c2c(O)c1-c1c(OC)cc2cc4c(c(O)c2c1O)C(=O)O[C@H](C)C4)C(=O)O[C@H](C)C3 | – | 67.7 µM | > 100 µM | 42 µM | > 100 µM | 37.9 µM | 31.2 µM | – | 25.3 µM | > 100 µM | 16.2 µM | 14.1 µM | 15.9 µM | – | – | 95.9 µM
9 | O=C(N/N=C/c1ccc(F)cc1)c1ccc(C(F)(F)F)nc1Nc1cccc(C(F)(F)F)c1 | 4.87 µM | – | 5.02 µM | 4.82 µM | 3.72 µM | 2.34 µM | 1.88 µM | 1.82 µM | – | 1.07 µM | 1.23 µM | 0.465 µM | 0.444 µM | 1.47 µM | 5.78 µM | 0.827 µM
10 | Cc1ccc(C2=C(Cl)C(=O)C(c3ccc(C)cc3)=C(Cl)C2=O)cc1 | > 100 µM | > 100 µM | > 100 µM | – | > 100 µM | > 100 µM | > 100 µM | – | – | – | – | – | – | – | > 100 µM | –
11 | N#CCC1(n2cc(-c3ncnc4[nH]ccc34)cn2)CN(C2CCN(C(=O)c3ccnc(C(F)(F)F)c3F)CC2)C1 | > 100 µM | > 100 µM | > 100 µM | > 100 µM | > 100 µM | > 100 µM | > 100 µM | 37.9 µM | 54.5 µM | 99.2 µM | 46.6 µM | > 100 µM | > 100 µM | – | – | > 100 µM
12 | O=C(Oc1ccc2c(c1)CN(Cc1ccccc1)CO2)c1ccccc1 | 32.3 µM | > 100 µM | 49.6 µM | 36 µM | – | 33 µM | 36.7 µM | – | – | – | – | – | – | – | 32.7 µM | –
13 | CCCCCCCCCCCCOC1C(C(CC(=O)N2CCN(Cc3ccc4c(c3)OCO4)CC2)NS(=O)(=O)c2cc(Cl)cc(Cl)c2)OC2OC(C)(C)OC21 (centres undefined) | > 100 µM | – | > 100 µM | > 89.8 µM | 78.3 µM | > 91.5 µM | > 100 µM | 43 µM | – | 14.8 µM | 18.1 µM | 12.3 µM | 25.5 µM | 4.45 µM | 36.6 µM | 10.8 µM
14 | O=C(OC[C@@H]1CO1)c1cccc2c(=O)c3ccccc3[nH]c12 | 1.97 µM | > 100 µM | > 100 µM | 2.29 µM | – | 1.01 µM | 1.29 µM | 0.344 µM | 0.0896 µM | 0.24 µM | 0.393 µM | 0.172 µM | 0.335 µM | 0.0469 µM | 0.642 µM | –
15 | Nc1ncc(C2[C@H](CNC(=O)c3cc(Br)c[nH]3)C(CNC(=O)c3cc(Br)c[nH]3)[C@@H]2c2cnc(N)[nH]2)[nH]1 (some centres undefined) | > 50 µM | > 50 µM | > 50 µM | > 50 µM | – | > 50 µM | > 50 µM | 8.79 µM | > 50 µM | 48.1 µM | 8.01 µM | > 50 µM | 0.329 µM | > 50 µM | > 50 µM | –
16 | O=C1CCS/C(=N/S(=O)(=O)c2ccc(N3N=C4c5ccccc5CC4C3c3cccs3)cc2)N1Cc1ccccc1 (centres undefined) | 44.4 µM | 75.7 µM | > 100 µM | 53.7 µM | – | > 100 µM | 52.6 µM | 21.8 µM | 28 µM | > 100 µM | 21.5 µM | > 100 µM | 21 µM | > 100 µM | > 100 µM | –
17 | Cc1ccnc(Nc2ccc([N+](=O)[O-])c(NCCN3CCOCC3)n2)c1 | – | 20.6 µM | > 100 µM | 48.5 µM | 0.0464 µM | 42.4 µM | – | – | 0.0182 µM and 0.0265 µM | 0.00368 µM | 0.0213 µM and 0.0379 µM | 0.00926 µM and 0.059 µM | 0.00693 µM and 0.0284 µM | 0.00334 µM | 20.5 µM | 0.0144 µM
